According to patent US20100144714A1, “DERIVATIVES OF IMIDAZO PYRIMIDO AND DIAZEPINE PYRIMIDINE-DIONE, AND USE THEREOF AS A DRUG” (SOCIETE DE CONSEILS DE RECHERCHES ET D'APPLICATIONS …, priority 2006, published 2010):

Molecular target: T1, human CB2 receptors (Homo sapiens, UniProt P34972)
T1 construct: expressed in transfected cells
Experiment: Affinity for the human CB2 cannabinoid receptors: inhibition of [3H]-CP55940 binding to transfected CHO-K1 cell membranes
Details: [3H]-CP55940 (1 nM), CHO-K1 membranes expressing human CB2; Cheng-Prusoff corrected; x = Ki below 50 nM
Experimental: The affinity of the compounds of the present invention for the different sub-types of cannabinoid receptors was measured according to procedures analogous to those described hereafter for the human CB2 receptor.
Study of the Affinity of the Compounds for the Human CB2 Cannabinoid Receptors
The affinity of the compounds of the invention for the human CB2 receptors is determined by measuring the inhibition of the binding of [^3H]-CP55940 to transfected CHO-K1 cell membrane preparations.
The CHO-K1 cells expressing the human CB2 receptors in a stable fashion are cultured in an RPMI 1640 medium containing 10% foetal calf serum, 2 mM of glutamine, 100 U/ml of penicillin, 0.1 mg/ml of streptomycin and 0.5 mg/ml of G418. The cells are collected with 0.5 mM of EDTA and centrifuged at 500 g for 5 minutes at 4° C. The pellet is re-suspended in phosphate buffered saline medium (PBS) and centrifuged at 500 g for 5 minutes at 4° C. The pellet is re-suspended in a Tris 50 mM buffer medium at pH 7.4 and centrifuged at 500 g for 5 minutes at 4° C. The cells are lysed by sonication and centrifuged at 39,000 g for 10 minutes at 4° C. The pellet is re-suspended in the Tris 50 mM buffer medium at pH 7.4 and centrifuged at 50,000 g for 10 minutes at 4° C. The membranes obtained in this last pellet are stored at −80° C.
Measurement of the competitive inhibition of the binding of the [^3H]-CP55940 to the CB2 receptors is carried out in duplicate using 96-well polypropylene plates. The cell membranes (10 μg of proteins/well) are incubated with the [^3H]-CP55940 (1 nM) for 60 minutes at 25° C. in a Tris-HCl 50 mM buffer medium, pH 7.4, comprising 0.1% bovine serum albumin (BSA), 5 mM of MgCl2, and 50 μg/ml of bacitracin.
The bound [^3H]-CP55940 is separated from the free [^3H]-CP55940 by filtration through GF/C glass fibre filter plates (Unifilter, Packard) pre-impregnated with 0.1% polyethylenimine (P.E.I.), using a Filtermate 196 (Packard). The filters are washed with Tris-HCl 50 mM buffer, pH 7.4 at 0-4° C. and the radioactivity present is determined using a counter (Packard Top Count).
The specific binding is obtained by subtracting the non-specific binding (determined in the presence of 0.1 μM of WIN55212-2 from the total binding). The data are analyzed by computer-assisted non-linear regression (MDL). For each test, a Cheng-Prusoff correction is made in order to convert the IC50 to the inhibition constant, Ki.
where [L] is the concentration of the radioligand used in the test and Kd is the radioligand equilibrium dissociation constant.

T1 sequence (P34972 whole entry): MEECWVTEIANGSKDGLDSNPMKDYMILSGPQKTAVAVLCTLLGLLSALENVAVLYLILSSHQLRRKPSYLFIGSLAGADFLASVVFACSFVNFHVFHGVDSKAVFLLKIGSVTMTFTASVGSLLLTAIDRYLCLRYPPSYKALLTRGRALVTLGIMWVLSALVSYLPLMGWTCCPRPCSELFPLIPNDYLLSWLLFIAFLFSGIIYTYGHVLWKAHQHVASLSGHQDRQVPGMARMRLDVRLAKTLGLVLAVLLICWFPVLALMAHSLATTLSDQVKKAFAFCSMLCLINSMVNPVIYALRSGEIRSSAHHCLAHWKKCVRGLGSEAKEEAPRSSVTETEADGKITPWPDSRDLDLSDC

| Compound | Ki [nM] |
| --- | --- |
| CN1CCN(c2ccc(CN3C(=O)C(Cc4ccccc4)n4c3nc3ccccc3c4=O)cc2)CC1 (stereo not shown) [Example 12] | < 50 |
| CC(C)CC1CC(=O)N(Cc2ccc(N3CCN(C)CC3)cc2)c2nc3ccccc3c(=O)n21 (stereo not shown) [Example 43] | < 50 |
| CN1CCN(c2ccc(CN3C(=O)CC(C)(C)n4c3nc3ccccc3c4=O)cc2)CC1 [Example 35] | < 50 |
| CN1CCN(c2ccc(CN3C(=O)C4(Cc5ccccc5C4)n4c3nc3ccccc3c4=O)cc2)CC1 [Example 17] | < 50 |
| CN1CCN(c2ccc(CN3C(=O)CC(CCc4ccccc4)n4c3nc3ccccc3c4=O)cc2)CC1 (stereo not shown) [Example 48] | < 50 |
| CN1CCN(c2ccc(CN3C(=O)C(C4CCCCC4)n4c3nc3ccccc3c4=O)cc2)CC1 (stereo not shown) [Example 5] | < 50 |
| CCCCC1(CCCC)C(=O)N(Cc2ccc(N3CCN(C)CC3)cc2)c2nc3ccccc3c(=O)n21 [Example 31] | < 50 |
| CN1CCN(c2ccc(CN3C(=O)C(c4ccc(-c5ccccc5)cc4)n4c3nc3ccccc3c4=O)cc2)CC1 (stereo not shown) [Example 2] | < 50 |
| CN1CCN(c2ccc(CN3C(=O)CC(Cc4ccccc4)n4c3nc3ccccc3c4=O)cc2)CC1 (stereo not shown) [Example 46] | < 50 |
| CN1CCN(c2ccc(CN3C(=O)CC(C4CCCCC4)n4c3nc3ccccc3c4=O)cc2)CC1 (stereo not shown) [Example 45] | < 50 |

Further lines, results first:

| Ki [nM] | Compound |
| --- | --- |
| < 50 | CN1CCN(c2ccc(CN3C(=O)C(C)(C)Cn4c3nc3ccccc3c4=O)cc2)CC1 [Example 37] |
| < 50 | CN1CCN(c2ccc(CN3C(=O)CC(c4ccccc4)n4c3nc3ccccc3c4=O)cc2)CC1 (stereo not shown) [Example 44] |
| < 50 | CC(C)C[C@H]1CC(=O)N(Cc2ccc(N3CCN(C)CC3)cc2)c2nc3ccccc3c(=O)n21 [Example 38] |
| < 50 | CN1CCN(c2ccc(CN3C(=O)C(CC4CCCCC4)n4c3nc3ccccc3c4=O)cc2)CC1 (stereo not shown) [Example 1] |
| < 50 | CN1CCN(c2ccc(CN3C(=O)C(c4ccc5ccccc5c4)n4c3nc3ccccc3c4=O)cc2)CC1 (stereo not shown) [Example 8] |
| < 50 | CN1CCN(c2ccc(CN3C(=O)C(CCC4CCCCC4)n4c3nc3ccccc3c4=O)cc2)CC1 (stereo not shown) [Example 4] |
